# Source: patent US20170216296A1, “METHODS OF TREATING HYPERGLYCEMIA” (Concert Pharmaceuticals, Inc., priority 2014, published 2017)
# Tests used:
# HbAlc [1] = assay: Phase 2 placebo-controlled clinical trial, HbAlc in whole blood; type: in vivo, human; settings: for least square mean HbAlc value: 600 mg twice daily, preliminary, FIG. 1
# Experimental: A Phase 2 placebo-controlled clinical trial of Compound (V) was conducted in patients with type 2 diabetic kidney disease and macroalbuminuria. The purpose of the trial was to compare Compound (V) to placebo in terms of safety and efficacy with respect to measures of renal function such as urinary albumin to creatinine ratio, serum creatinine levels, and estimated glomerular filtration rate. HbAlc was measured but was not an intended endpoint of the trial. Thus, while the study was controlled for other medications, it was not controlled for anti-glycemic medications nor were the placebo and treated groups matched for baseline HbAlc levels.
# All patients enrolled in the clinical trial were concurrently treated with angiotensin modulators. The clinical trial consists of three parts, two of which were completed and a third part that is on-going. Part 1 was a double-blind, parallel, two-arm, placebo-controlled study evaluating the safety and efficacy of 600 mg of Compound (V) twice daily for 24 weeks. 182 patients were enrolled in this first part of the trial. Part 2 was a blinded 24-week extension study in which all patients who completed Part 1 were eligible to continue receiving 600 mg of Compound (V) or placebo twice daily. 143 patients were enrolled in this part of the clinical trial and have completed dosing. 123 of the 143 patients that were enrolled in Part 2 of the clinical trial completed Part 2. The combined 48 weeks of data from Parts 1 and 2 of the clinical trial have been analyzed. 102 patients enrolled in Part 3 which is a 48 week open-label extension study that is on-going. All patients who completed Part 2 were eligible to receive 600 mg of Compound (V) twice daily.
# The key criteria for patients to be included in the clinical trial were (a) eGFR from 23 to 89 mL/min/1.73 m2, a measure of kidney function which indicates mild to moderately severe type 2 diabetic kidney disease; (b) having been on a stable angiotensin modulation regimen for a minimum of four weeks prior to initiating screening and nine weeks prior to initiating dosing; (c) blood pressure less than or equal to 145/90 mm Hg; (d) glycosylated hemoglobin Alc (HbAlc) less than or equal to 10.5%; and (e) UACR greater than or equal to 200 mg/g in male patients and 300 mg/g in female patients, ratios of albumin to creatinine that are indicative of substantial kidney damage in men and women, but not more than 5,000 mg/g, a ratio indicative of severe kidney disease. HbAlc in whole blood samples was measured by ion-exchange chromatography using a TOSOH HLC-723G8 HPLC analyzer.
# The procedure is similar to the one described in the Laboratory Procedure Manual of the Centers for Disease Control and Prevention. See www.cdc.gov/nchs/data/nhanes/nhanes_11_12/GHB_met_G_Tosoh_G8.pdf. The TOSOH instrument can reliably detect HbAlc levels in the range of 4.0-16.8%.
# Patients were sampled at weeks 0, 12, 24, 36 and 48 weeks (see FIG. 1). The value at 0 weeks was calculated as the mean of values recorded on Days −28, −7 and −1. In other words, the patients were tested 4 weeks before the trial, one week before the trial and one day before. The mean value of the measurements was recorded as Day 0 for the trial.
# HbAlc [2] = settings: 100 patients with type 2 diabetes; cited from earlier work
Compound,"lowering of HbAlc in the treated group relative to placebo (HbAlc [1]; Part 1 and Part 2 (48 weeks), p=0.0001)",least square mean HbAlc value (HbAlc [1]; after Part 1 and Part 2 of the trial (48 weeks)),"least square mean HbAlc value (HbAlc [1]; beginning of the trial (week 0, mean of Days -28, -7 and -1), patients with type 2 diabetic kidney disease and macroalbuminuria)","effect on hemoglobin glycosylation (HbAlc [1]; group receiving compound, sampled at weeks 0, 12, 24, 36 and 48)","drop in AlC (HbAlc [1]; overall group change from baseline, FIG. 2 (week 12), placebo 0.23 increase, statistically significant)","patients with lower HbAlc after 12 weeks (HbAlc [1]; week 12 change from baseline, number of patients/patients in arm, FIG. 2, placebo 33/79)",effect on HbAlC (HbAlc [2])
[2H]C([2H])([2H])[C@H](O)C([2H])([2H])CCCn1c(=O)c2c(ncn2C)n(C)c1=O [Compound (V)],statistically significant,7.1,7.7,positive effect,0.35,57/83,–
CC(=O)CCCCn1c(=O)c2c(ncn2C)n(C)c1=O [Pentoxifylline],–,–,–,–,–,–,no effect
